Measured values taken from publication PMC12521527, “In vivo self-assembled nano-PROTAC for the dual degradation of AR and HSP90 to overcome castration-resistant prostate cancer resistance” (Signal Transduction and Targeted Therapy, 2025).
Numbered stars: 1 amine (or outer) side, 2 acyl side, 3 side chain; on linkers, the order of the positions; unused ones are H or OH. Square brackets hold non-standard residues; d marks the D form. Peptide text beside a SMILES is read from it. * marks the point of attachment. X2 = CC1(C)C(=O)N(c2ccc(C#N)c(C(F)(F)F)c2)C(=S)N1c1ccc(C(=O)*)c(F)c1; X1 = O=C1CCC(N2C(=O)c3cccc(N(CC(=O)[*:2])[*:1])c3C2=O)C(=O)N1; EuK = O=C(O)CC[C@H](NC(=O)N[C@@H](CCCCN*)C(=O)O)C(=O)O; 2Nal = N[C@@H](Cc1ccc2ccccc2c1)C(=O)O

Legend:
Format in all cases: cell-based
AR [1] = experiment: Western blot AR degradation in 22Rv1 cells
Experimental: (§1) All uncropped blots are presented in Supplementary Fig. 26. j, k Representative 22Rv1 cell CLSM images of the degradation of AR after incubation with FITC-labeled Psa-AR for 12 h and quantitative analysis, n = 3 per group. Scale bar: 10 μm. l, m Representative 22Rv1 cell CLSM images of the degradation of HSP90 after incubation with FITC-labeled Psa-AR for 12 h and quantitative analysis, n = 3 per group. Scale bar: 10 μm. n AR-V7 expression in 22Rv1 cells after treatment with PBS, P-AR (20 μM), Psa-AR (20 μM) or Psa-AR (20 μM) combined with MG132 (2 μM) for 48 h, as determined by western blotting. β-Actin was used as an internal reference. o Results of apoptosis in 22Rv1 cells treated with PBS, P-AR (20 μM), or Psa-AR (20 μM) for 48 h, as detected by flow cytometry.
(§2) The pretreated cells were resuspended in lysis buffer containing 50 mM Tris-HCl (pH 8.0), 150 mM NaCl, 1% (v/v) Triton X-100, and protease inhibitors. The protein concentration was determined via a BCA kit (Applygen). Each sample ([…]) was subjected to SDS‒PAGE and then transferred to a PVDF membrane. The blots were blocked in 5% (wt/v) blocking buffer. After washing three times with TBST buffer (10 mM TBS solution containing 0.1% (v/v) Tween-20), the blots were incubated with primary antibodies at 4 °C on a shaker for 16 h. After washing with TBST buffer three times, the blot was incubated with secondary antibodies at room temperature on a shaker for 2 h. After being washed three times with TBST buffer, the blots were subsequently scanned on a Typhoon Trio Variable Mode Imager.

22Rv1 (PSMA^high) cells = experiment: Flow cytometry uptake of FITC-labeled conjugates in 22Rv1 cells; conditions: 40 µM, 24 h, n = 3
Experimental: Fig. 2 a Representative 22Rv1 cell CLSM images of FITC-labeled Psa-AR (40 μM) assembly (green channel) interacting with PSMA (red channel) and its colocalization analysis (1–1’). Scale bar: 10 μm. b Representative SEM images of 22Rv1 cells after treatment with Psa-AR (40 μM) for 4 h. Scale bar: 1 μm. Scale bar: 200 nm (zoom in). c Representative 22Rv1 cell CLSM images of FITC-labeled P-AR (40 μM) (green channel) interacting with PSMA (red channel). Scale bar: 10 μm. d Representative SEM images of 22Rv1 cells after treatment with P-AR (40 μM) for 4 h. Scale bar: 1 μm. Scale bar: 200 nm (zoom in). e The uptake of either Psa-AR or P-AR by 22Rv1 (PSMA^high) and RWPE-1 (PSMA^low) cells was examined by flow cytometry, followed by comprehensive quantitative analysis (f), n = 3 per group. g Representative 22Rv1 cell CLSM images of FITC-labeled Psa-AR assembly (green channel) with lysosomes (red channel) and colocalization analysis. Scale bar: 10 μm. h Representative CLSM images of 22Rv1 cells after incubation with FITC-labeled Psa-AR (green channel) for 12 h. […]
A total of 1 × 10^5 22Rv1 cells per well were seeded in 6-well plates in DMEM containing 10% fetal bovine serum and 1% penicillin‒streptomycin. […] Then, the cells were collected to evaluate fluorescence expression via flow cytometry. […] The cells were then collected and analyzed for fluorescence expression via flow cytometry.

AR [2] = biological target: T1, AR (Homo sapiens, UniProt P10275, T878A); experiment: Western blot AR degradation in LNCaP cells
T1 construct: endogenous in cells; host or cells: LNCaP
Experimental: as §1, §2

[3] = western blot, 22Rv1, 20 μM, 48 h

T1 sequence (P10275 whole entry T878A): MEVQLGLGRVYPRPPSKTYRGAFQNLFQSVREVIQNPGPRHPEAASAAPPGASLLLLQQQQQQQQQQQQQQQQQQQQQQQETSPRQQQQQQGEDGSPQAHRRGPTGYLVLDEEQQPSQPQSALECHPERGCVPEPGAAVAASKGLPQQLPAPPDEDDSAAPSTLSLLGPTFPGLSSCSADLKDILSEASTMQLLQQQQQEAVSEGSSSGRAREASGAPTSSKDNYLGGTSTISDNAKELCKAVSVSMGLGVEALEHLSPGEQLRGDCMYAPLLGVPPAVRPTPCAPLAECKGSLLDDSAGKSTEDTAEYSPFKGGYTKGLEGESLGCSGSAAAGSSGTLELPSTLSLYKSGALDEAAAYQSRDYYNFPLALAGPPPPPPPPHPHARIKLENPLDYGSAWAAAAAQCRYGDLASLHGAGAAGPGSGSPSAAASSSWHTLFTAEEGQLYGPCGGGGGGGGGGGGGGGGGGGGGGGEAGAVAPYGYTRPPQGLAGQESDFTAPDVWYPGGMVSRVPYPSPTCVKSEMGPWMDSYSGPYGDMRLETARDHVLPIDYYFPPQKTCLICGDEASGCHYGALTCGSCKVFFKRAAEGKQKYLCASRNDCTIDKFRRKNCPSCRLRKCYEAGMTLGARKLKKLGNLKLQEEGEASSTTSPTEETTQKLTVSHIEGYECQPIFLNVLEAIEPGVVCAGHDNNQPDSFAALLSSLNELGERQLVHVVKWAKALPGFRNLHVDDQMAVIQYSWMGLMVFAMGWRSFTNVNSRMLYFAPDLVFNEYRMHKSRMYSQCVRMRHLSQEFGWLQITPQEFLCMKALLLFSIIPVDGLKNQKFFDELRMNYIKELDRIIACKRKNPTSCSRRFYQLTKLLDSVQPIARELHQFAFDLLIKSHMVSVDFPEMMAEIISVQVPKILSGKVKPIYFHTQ
T1 sequence (Q16531 whole entry, further chain): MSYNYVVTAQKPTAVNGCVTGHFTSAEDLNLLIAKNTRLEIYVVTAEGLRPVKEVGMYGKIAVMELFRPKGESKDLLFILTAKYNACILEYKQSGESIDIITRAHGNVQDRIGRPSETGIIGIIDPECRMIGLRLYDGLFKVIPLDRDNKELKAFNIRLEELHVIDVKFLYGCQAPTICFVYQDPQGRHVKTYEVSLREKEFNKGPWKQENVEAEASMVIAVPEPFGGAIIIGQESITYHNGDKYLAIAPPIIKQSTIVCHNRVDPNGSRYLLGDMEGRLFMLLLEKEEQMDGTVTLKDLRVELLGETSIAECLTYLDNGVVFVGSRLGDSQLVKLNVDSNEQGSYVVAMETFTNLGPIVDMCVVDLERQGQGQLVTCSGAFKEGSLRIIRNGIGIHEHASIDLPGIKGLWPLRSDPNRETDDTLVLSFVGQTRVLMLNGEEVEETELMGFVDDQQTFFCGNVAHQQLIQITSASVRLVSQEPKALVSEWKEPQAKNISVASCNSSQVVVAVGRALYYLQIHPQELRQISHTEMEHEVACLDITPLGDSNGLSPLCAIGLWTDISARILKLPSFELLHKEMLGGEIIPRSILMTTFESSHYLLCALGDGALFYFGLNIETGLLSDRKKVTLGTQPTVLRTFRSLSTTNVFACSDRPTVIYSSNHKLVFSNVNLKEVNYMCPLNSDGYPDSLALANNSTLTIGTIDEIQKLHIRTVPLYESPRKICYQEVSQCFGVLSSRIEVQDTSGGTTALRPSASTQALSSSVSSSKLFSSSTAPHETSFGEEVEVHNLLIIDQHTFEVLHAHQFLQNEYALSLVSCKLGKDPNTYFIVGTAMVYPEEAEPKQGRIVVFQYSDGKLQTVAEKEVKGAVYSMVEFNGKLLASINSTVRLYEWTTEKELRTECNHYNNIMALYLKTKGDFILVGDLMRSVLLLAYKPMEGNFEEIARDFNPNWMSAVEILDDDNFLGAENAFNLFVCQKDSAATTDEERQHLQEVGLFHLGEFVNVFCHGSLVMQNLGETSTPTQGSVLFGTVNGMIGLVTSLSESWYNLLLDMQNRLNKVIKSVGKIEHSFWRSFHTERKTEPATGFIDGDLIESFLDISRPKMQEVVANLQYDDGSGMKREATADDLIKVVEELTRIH
T1 sequence (Q96SW2 whole entry, further chain): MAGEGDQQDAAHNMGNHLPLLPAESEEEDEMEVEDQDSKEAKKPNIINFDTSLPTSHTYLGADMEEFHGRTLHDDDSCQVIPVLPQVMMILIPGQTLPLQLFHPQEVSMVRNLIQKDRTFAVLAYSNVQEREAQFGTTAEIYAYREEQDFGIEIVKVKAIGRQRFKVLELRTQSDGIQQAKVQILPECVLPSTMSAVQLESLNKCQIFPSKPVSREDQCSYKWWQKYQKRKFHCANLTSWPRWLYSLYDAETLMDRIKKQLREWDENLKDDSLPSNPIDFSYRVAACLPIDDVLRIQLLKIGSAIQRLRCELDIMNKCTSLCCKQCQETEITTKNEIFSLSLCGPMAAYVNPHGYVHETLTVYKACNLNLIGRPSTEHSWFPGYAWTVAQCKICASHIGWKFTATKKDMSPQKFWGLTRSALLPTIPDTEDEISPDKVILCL

Structure (SMILES): CC1(C)C(=O)N(c2ccc(C#N)c(C(F)(F)F)c2)C(=S)N1c1ccc(C(=O)NCCCC[C@H](NC(=O)CNc2cccc3c2C(=O)N(C2CCC(=O)NC2=O)C3=O)C(=O)N[C@@H](CS)C(=O)N[C@@H](CCC(N)=O)C(=O)N[C@@H](Cc2ccc(O)cc2)C(=O)N[C@@H](CC(N)=O)C(=O)N[C@@H](CCC(N)=O)C(=O)N[C@@H](Cc2ccc(O)cc2)C(=O)N[C@@H](Cc2ccc(O)cc2)C(=O)N[C@@H](Cc2ccc3ccccc3c2)C(=O)NCCCC[C@H](NC(=O)N[C@@H](CCC(=O)O)C(=O)O)C(=O)O)c(F)c1 (some centres unmarked) [Psa-AR] (H-[X1]K(X2)CQYNQYY[2Nal]-EuK)
- AR protein knockdown maintained within 96-h observation period (AR [1]; 22Rv1, 20 μM, 12–96 h): over 99%
- DC50 (AR [1]; 22Rv1 cell line, 1 to 100 μM, read-out: DC50 for AR protein degradation): 9.45 µM
- AR degradation compared with PBS controls (AR [1]; [3]): 79%
- enhancement of AR degradation over P-AR (AR [1]; [3]): 45%
- uptake efficiency relative to nonassembling P-AR (22Rv1 (PSMA^high) cells): 5 fold
- AR degradation rate (AR [2]; LNCaP cells, time-dependent evaluation): 97%
- DC50 (AR [2]; read-out: DC50 for AR protein degradation, LNCaP cell line, 1 to 100 μM): 11.4 µM
- superior AR degradation efficiency relative to P-AR (AR [2]; western blot, LNCaP, 20 μM, 48 h): 49%
